Assay results reported in patent US5767096A, “Bromotiacumicin compounds” (Abbott Laboratories, priority 1996, dated 1998).
≈ marks a conversion by molar mass, not a printed value. Read-outs that look alike come from different tables or passages of the source.

What was measured:
Assay type in all cases: cell-based
[1] = system: Staphylococcus aureus ATCC 6538P; test: In vitro antibiotic activity (MIC), agar dilution, brain heart infusion agar; conditions: ~10^4 organisms per spot, 37° C., ~20 hours
Procedure: (§1) Optical rotations were measured on a Perkin-Elmer Model 241 polarimeter in a 10 cm cell. Fast atom bombardment mass spectra were measured on a Kratos MS-50 mass spectrometer. Ultraviolet spectra were recorded on a Perkin-Elmer Lambda 3B UV-visible spectrophotometer and infrared spectra on a Nicolet model 60SX FT-IR attached to a Nicolet computer. NMR spectra were acquired on either a General Electric GN500 or GN300 spectrometer. […] Rf values reported were acquired on Analtech TLC plates developed with chloroform:methanol (9:1, v:v) and were visualized using ceric sulfate spray reagent. Melting points were determined on a Hoover Unimelt and are reported uncorrected. Minimal inhibitory concentrations were determined by twofold agar dilution. Brain heart infusion agar was used for aerobes and Wilkins-Chalgren agar for anaerobes.
(§2) For primary screening of compounds of the invention against selected aerobic microorganisms, minimal inhibitory concentrations (MICs) were determined by the following agar dilution method: Series of two-fold dilutions of the test compounds were added to brain heart infusion agar. The agar plates were inoculated with approximately 10^4 organisms per spot of each of the organisms to be tested. These inoculated agar plates were then incubated at 37° C. for approximately 20 hours. The MICs were determined as the minimal concentration of test compound (in […]) that inhibited visible growth.

[2] = system: Streptococcus pyogenes EES61; test: as above; conditions: ~10^4 organisms per spot, 37° C., ~20 hours
Procedure: as §1, §2

[3] = system: Staphylococcus epidermidis 3519; test: as above; conditions: ~10^4 organisms per spot, 37° C., ~20 hours
Procedure: as §1, §2

[4] = system: Enterococcus faecium ATCC 8043; test: as above; conditions: ~10^4 organisms per spot, 37° C., ~20 hours
Procedure: as §1, §2

[5] = system: Escherichia coli JUHL; test: as above; conditions: ~10^4 organisms per spot, 37° C., ~20 hours
Procedure: as §1, §2

[6] = system: Clostridium perfringes ATCC 13124; test: microbe, parasite or virus in culture; conditions: anaerobe, ~10^5 organisms per spot, 37° C., ~48 hours
Procedure: as §1, with “Fast” for “Optical rotations were measured on a Perkin-Elmer Model 241 polarimeter in a 10 cm cell. Fast”
as §2, with “anaerobic bacteria such as Clostridium,” for “selected aerobic microorganisms,”, “Wilkins-Chalgren” for “brain heart infusion”, “10^5” for “10^4”, “The” for “These”, “48” for “20”

[7] = system: Clostridium difficile ATCC 9689; test: In vitro antibiotic activity (MIC) against anaerobes, agar dilution, Wilkins-Chalgren agar; conditions: anaerobe, ~10^5 organisms per spot, 37° C., ~48 hours
Procedure: as §1
as §2, with “anaerobic bacteria such as Clostridium,” for “selected aerobic microorganisms,”, “Wilkins-Chalgren” for “brain heart infusion”, “10^5” for “10^4”, “The” for “These”, “48” for “20”

[8] = system: Clostridium difficile 2532; test: as above; conditions: anaerobe, ~10^5 organisms per spot, 37° C., ~48 hours
Procedure: as §1
as §2, with “anaerobic bacteria such as Clostridium,” for “selected aerobic microorganisms,”, “Wilkins-Chalgren” for “brain heart infusion”, “10^5” for “10^4”, “The” for “These”, “48” for “20”

[9] = system: Clostridium difficile ATCC 17857; test: as above; conditions: anaerobe, ~10^5 organisms per spot, 37° C., ~48 hours
Procedure: as §1
as §2, with “anaerobic bacteria such as Clostridium,” for “selected aerobic microorganisms,”, “Wilkins-Chalgren” for “brain heart infusion”, “10^5” for “10^4”, “The” for “These”, “48” for “20”

[10] = system: bacterial pathogens; test: In vitro activity against bacterial pathogens (summary in words); conditions: from Table 2
Procedure: Optical rotations were measured on a Perkin-Elmer Model 241 polarimeter in a 10 cm cell. Fast atom bombardment mass spectra were measured on a Kratos MS-50 mass spectrometer. Ultraviolet spectra were recorded on a Perkin-Elmer Lambda 3B UV-visible spectrophotometer and infrared spectra on a Nicolet model 60SX FT-IR attached to a Nicolet computer. NMR spectra were acquired on either a General Electric GN500 or GN300 spectrometer. NMR spectral data are reported in Table 1 (following Example 6 below). Rf values reported were acquired on Analtech TLC plates developed with chloroform:methanol (9:1, v:v) and were visualized using ceric sulfate spray reagent. Melting points were determined on a Hoover Unimelt and are reported uncorrected. Minimal inhibitory concentrations were determined by twofold agar dilution. Brain heart infusion agar was used for aerobes and Wilkins-Chalgren agar for anaerobes.
For primary screening of compounds of the invention against selected aerobic microorganisms, minimal inhibitory concentrations (MICs) were determined by the following agar dilution method: Series of two-fold dilutions of the test compounds were added to brain heart infusion agar. […] The MICs were determined as the minimal concentration of test compound (in […]) that inhibited visible growth. […]

[11] = system: Bacteriodes thetaiotaomicron ATCC 29741; test: In vitro antibiotic activity (MIC) against anaerobes, agar dilution, Wilkins-Chalgren agar; conditions: anaerobe, ~10^5 organisms per spot, 37° C., ~48 hours
Procedure: as §1
as §2, with “anaerobic bacteria such as Clostridium,” for “selected aerobic microorganisms,”, “Wilkins-Chalgren” for “brain heart infusion”, “10^5” for “10^4”, “The” for “These”, “48” for “20”

[12] = system: Bacteroides fragilis ATCC 25285; test: as above; conditions: ATCC25285, anaerobe, ~10^5 organisms per spot, 37° C., ~48 hours
Procedure: as §1
as §2, with “anaerobic bacteria such as Clostridium,” for “selected aerobic microorganisms,”, “Wilkins-Chalgren” for “brain heart infusion”, “10^5” for “10^4”, “The” for “These”, “48” for “20”

[13] = Staphylococcus aureus, ATCC6538P, read-out: MIC
[14] = Streptococcus pyogenes, EES61, read-out: MIC
[15] = Staphylococcus epidermidis, 3519, read-out: MIC
[16] = Enterococcus faecium, ATCC8043, read-out: MIC
[17] = Escherichia coli, read-out: MIC
[18] = Clostridium, ATCC13124, read-out: MIC
[19] = Clostridioides difficile, ATCC9689, read-out: MIC
[20] = Clostridioides difficile, 2532, read-out: MIC
[21] = Clostridioides difficile, ATCC17857, read-out: MIC

| Compound | MIC [1] [mg/L] | MIC [2] [mg/L] | MIC [3] [mg/L] | MIC [4] [mg/L] | MIC [5] [mg/L] | MIC [6] | MIC [7] [mg/L] | MIC [8] [mg/L] | MIC [9] [mg/L] | MIC [1, 13] [mg/L] | MIC [2, 14] [mg/L] | MIC [3, 15] [mg/L] | MIC [4, 16] [mg/L] | MIC [5, 17] [mg/L] | MIC [6, 18] [mg/L] | MIC [7, 19] [mg/L] | MIC [8, 20] [mg/L] | MIC [11] [mg/L] | MIC [12] [mg/L] | MIC [9, 21] [mg/L] | other results |
| --- | --- | --- | --- | --- | --- | --- | --- | --- | --- | --- | --- | --- | --- | --- | --- | --- | --- | --- | --- | --- | --- |
| 4'",6'"-didechloro-4'"-bromotiacumicin B [Ex. 5] | 6.2 | 25 | 12.5 | 12.5 | > 200 | <= 0.06 μg/mL | 0.12 | 0.5 | 0.25 | – | – | – | – | – | – | – | – | – | – | – | – |
| 4'",6'"-didechloro-4'"-bromotiacumicin C [Ex. 6] | 50 | 50 | 50 | 25 | > 200 | 0.06 mg/L | 0.5 | 2 | 1 | – | – | – | – | – | – | – | – | – | – | – | – |
| CCc1c(Br)c(O)c(Cl)c(O)c1C(=O)O[C@H]1[C@H](O)[C@H](OC)[C@H](OC/C2=C\C=C\C[C@H](O)/C(C)=C/[C@H](CC)[C@@H](O[C@@H]3OC(C)(C)[C@@H](OC(=O)C(C)C)[C@H](O)[C@@H]3O)/C(C)=C/C(C)=C/C[C@@H]([C@@H](C)O)OC2=O)O[C@@H]1C [Ex. 3, 6'"-dechloro-6'"-bromotiacumicin B] | – | – | – | – | – | – | – | – | – | 6.2 (≈ 5.62 µM) | 6.2 (≈ 5.62 µM) | 6.2 (≈ 5.62 µM) | 6.2 (≈ 5.62 µM) | > 200 | 0.03 (≈ 0.0272 µM) | 0.06 (≈ 0.0544 µM) | 0.06 (≈ 0.0544 µM) | > 128 | > 128 | 0.06 (≈ 0.0544 µM) | potency among compounds of this invention [10]: the most potent of the compounds of this invention; potency compared with tiacumicin B [10]: quite comparable to tiacumicin B |
| CCc1c(Br)c(O)c(Cl)c(O)c1C(=O)O[C@H]1[C@H](O)[C@H](OC)[C@H](OC/C2=C\C=C\C[C@H](O)/C(C)=C/[C@H](CC)[C@@H](O[C@@H]3OC(C)(C)[C@@H](OC(=O)C(C)C)[C@H](O)[C@@H]3O)/C(C)=C/C(C)=C/C[C@@H](C(C)=O)OC2=O)O[C@@H]1C [Ex. 4, 6'"-dechloro-6'"-bromo-18-ketotiacumicin B] | – | – | – | – | – | – | – | – | – | 50 (≈ 45.4 µM) | 50 (≈ 45.4 µM) | 100 (≈ 90.9 µM) | 50 (≈ 45.4 µM) | > 200 | 0.015 (≈ 0.0136 µM) | 0.25 (≈ 0.227 µM) | 1 (≈ 0.909 µM) | > 128 | > 128 | 0.25 (≈ 0.227 µM) | – |
